In brackets after ≈: the same amount, converted by molar mass.
Experiments:
[1] = Apparent thermodynamic functions of dissolution (van't Hoff); type: physicochemical; details: Thm = 302.98 K
Excerpt: The dissolution of the new hybrids was characterized based on apparent thermodynamic parameters obtained from temperature dependences of solubility of the studied compounds in the selected solvents (Figure 6). […] The van’t Hoff enthalpy of dissolution can be expressed as the inclination of a tangent to a solubility curve plotted as lnx vs. (1/T − 1/Thm) by Equation (6): (6) ΔHsolo=−R(∂lnx/∂(1/T−1/Thm))=−R⋅slope where R = 8.314 J⋅K^−1·mol^−1 is the universal gas constant. Thm = 302.98 K denotes the mean harmonic temperature, which was calculated by Equation (7):(7) Thm=n/∑i=1n1/Ti where n represented the number of experimental temperatures. The apparent standard Gibbs energy was evaluated by Equation (8):(8) ΔGsolo=−RThm×intersept
The apparent standard solution entropies were obtained from the well-known relationship:(9) ΔSsolo=ΔHsolo−ΔGsolo/Thm
The calculated apparent thermodynamic solubility functions of dissolution (Gibbs energy, enthalpy, and entropy) at standard temperature 298.15 K for hybrid compounds were collected in Table 4.

[2] = Thermodynamic functions of transfer 1-octanol/buffer pH 7.4; type: physicochemical; details: 298.15 K
Method: The temperature variation of the partition coefficient provides enthalpic and entropic contributions to the free energy of transfer. The thermodynamic transfer functions for hybrids I–III in the 1-octanol/buffer pH 7.4 system were calculated by Equations (12)–(16) and are summarized in Table 6. The standard Gibbs energy values for all the compounds are negative. Therefore, the transfer from the aqueous medium to the organic phase within the studied temperature range is thermodynamically favourable and spontaneous. The standard transfer enthalpies of all the studied compounds are positive, which means the process is endothermic. Energy is consumed during the transfer to overcome the hydrophobic effects in water (destruction of the molecule solvate shell structure), destruction of the solvent–solute interactions in the aqueous medium and creation of a cavity in the organic phase where the solute molecules can enter.
The standard change in Gibbs free energy of transfer (∆trG^o) from the buffer to the organic phase was calculated by Equation (14):∆trG^o = −RTlnP*o/b(14)
The standard change entropy of transfer (∆trS^o) is determined as follows:∆trS^o = (∆trH^o − ∆trG^o)/T(15)

[3] = test system: C. parapsilosis ATCC 22019; assay: In vitro antifungal activity, microbroth dilution (MIC); type: cell-based; details: C. parapsilosis ATCC 22019
In short: (§1)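 MICs were determined by CLSI microbroth dilution, with fluconazole as the reference drug. Plates were incubated at 35 °C for 24 h and growth was scored visually against a sample-free reference culture. Each test was run in triplicate.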

C. utilis 84 = assay: as above; type: cell-based; details: C. utilis 84
In short: as §1

C. glabrata 61L = assay: as above; type: cell-based; details: C. glabrata 61L
In short: as §1

[4] = Partition in system 1-octanol/buffer pH 7.4, shake-flask method; type: physicochemical; details: for logP at 2 days / logD at 2 days: 1-octanol/buffer pH 7.4, pH 7.4, 1-octanol/buffer pH 7.4; for logP at 2 days: from concentrations in mole fraction; for logD at 2 days / logPo/b: from concentrations in mol∙L^−1; for sb × 10^6 (concentration in buffer) / so × 10^4 (concentration in 1-octanol) / xb × 10^7 (mole fraction in buffer) / xo × 10^5 (mole fraction in 1-octanol) / logPo/b: 1-octanol/buffer pH 7.4
Method: The partition coefficients of the new hybrid compounds in the model system 1-octanol/buffer pH 7.4 as a lipophilicity surrogate were determined experimentally. […] It is the lipophilic properties that allow the hybrids to move from the water phase to the less hydrophilic octanol phase, where the solute–solvent intermolecular interactions are more favourable. According to the results shown in Table 5, the order of changes in the partition coefficients logPo/b at T = 298.15 K, depending on the substituent nature, is expressed as the inequality: Cl- (1.65) < F- (2.40) < CH3- (2.50). Compounds I and II are the most lipophilic in the series of the studied substances, whereas the introduction of a chlorine atom considerably lowers the partition coefficient (~0.8 log units). This fact agrees with the common concept that lipophilic groups are usually hydrocarbon or fluorine-containing radicals. […] For drugs with such partition coefficients, there is a good balance between the solubility and permeability through passive diffusion and minimum metabolism due to the low binding capacity with enzymes.
The octanol/buffer pH 7.4 partition coefficient logPO/B is measured in a static mode using the shake-flask method. The procedure has been presented as standard in the Organization for Economic Cooperation and Development (OECD) guidelines for testing chemicals. The equipment described above was also used for the determination of the 1-octanol/water partition coefficients. […] The correctness of the obtained value of each compound was verified by checking the mass balance of the starting amount of the compound and the total amount of the compound partitioned between the two phases.
To aim evaluated transfer (partition) thermodynamic functions, the 1-octanol/buffer partition coefficients P^* o/b as the ratio of equilibrium concentrations in the organic (xo) and aqueous phases (xb) expressed in mole fractions were calculated: P* o/b = xo/xb(12)

O=c1c2sc(=S)n(-c3ccc(Cl)cc3)c2ncn1CCCN1CCN(CC(O)(Cn2cncn2)c2ccc(F)cc2F)CC1 (stereo not shown) [III, 6-[3-[4-[2-(2,4-difluorophenyl)-2-hydroxy-3-(1H-1,2,4-triazol-1-yl)propyl]-1-piperazinyl]propyl]-2,3-dihydro-3-(4-chlorophenyl)-2-thioxo-thiazolo[4,5-d]pyrimidin-7(6H)-one]
TΔSsolo ([1]; 1-Octanol): -0.22 kcal/mol | ΔGsolo ([1]; 1-Octanol): 3.68 ± 0.072 kcal/mol | ΔHsolo ([1]; 1-Octanol): 3.47 ± 0.024 kcal/mol | ΔSsolo ([1]; 1-Octanol): −3.1 ± 0.2 J·mol^−1·K^−1 | TΔSsolo ([1]; Buffer pH 2.0): -4.59 kcal/mol | ΔGsolo ([1]; Buffer pH 2.0): 6.69 ± 0.096 kcal/mol | ΔHsolo ([1]; Buffer pH 2.0): 2.1 ± 0.024 kcal/mol | ΔSsolo ([1]; Buffer pH 2.0): −64.4 ± 3.8 J·mol^−1·K^−1 | TΔSsolo ([1]; Buffer pH 7.4): -2.87 kcal/mol | ΔGsolo ([1]; Buffer pH 7.4): 8.05 ± 0.17 kcal/mol | ΔHsolo ([1]; Buffer pH 7.4): 5.19 ± 0.048 kcal/mol | ΔSsolo ([1]; Buffer pH 7.4): −40.3 ± 2.3 J·mol^−1·K^−1 | T∆trS^o [2]: 5.81 ± 0.239 kcal/mol | ∆trG^o [2]: -3.54 ± 0.048 kcal/mol | ∆trH^o [2]: 2.27 ± 0.024 kcal/mol | ∆trS^o [2]: 81.5 ± 1.5 J·mol^−1·K^−1 | advantage over fluconazole ([3]; MIC ratio): 8 fold | MIC ([3]; Lodderomyces parapsilosis, ATCC22019, 35 °C, 24 h, read-out: MIC): 0.25 µg/mL (≈ 0.379 µM) | activity relative to fluconazole (C. utilis 84): comparable | MIC (C. utilis 84; Williopsis jadinii, 35 °C, 24 h, read-out: MIC): 2 µg/mL (≈ 3.03 µM) | MIC relative to the reference value (fluconazole) (C. glabrata 61L): four times less | MIC (C. glabrata 61L; Nakaseomyces glabratus, 35 °C, 24 h, read-out: MIC): 2 µg/mL (≈ 3.03 µM) | logP at 2 days ([4]; 293.15 K): 2.56 | logD at 2 days ([4]; 293.15 K): 1.62 | logP at 2 days ([4]; 298.15 K): 2.59 | logP at 2 days ([4]; 303.15 K): 2.61 | logP at 2 days ([4]; 308.15 K): 2.64 | logD at 2 days ([4]; 308.15 K): 1.7 | logP at 2 days ([4]; 313.15 K): 2.69 | logD at 2 days ([4]; 313.15 K): 1.73 | sb × 10^6 (concentration in buffer) ([4]; 293.15 K): 9.29 mol∙L^−1 (printed as sb × 10^6 | so × 10^4 (concentration in 1-octanol) ([4]; 293.15 K): 3.89 mol∙L^−1 (printed as so × 10^4 | xb × 10^7 (mole fraction in buffer) ([4]; 293.15 K): 1.69 mole fraction (printed as xb × | xo × 10^5 (mole fraction in 1-octanol) ([4]; 293.15 K): 6.14 mole fraction (printed as xo × | sb × 10^6 (concentration in buffer) ([4]; 298.15 K): 8.77 mol∙L^−1 (printed as sb × 10^6 | so × 10^4 (concentration in 1-octanol) ([4]; 298.15 K): 3.90 mol∙L^−1 (printed as so × 10^4 | xb × 10^7 (mole fraction in buffer) ([4]; 298.15 K): 1.60 mole fraction (printed as xb × | xo × 10^5 (mole fraction in 1-octanol) ([4]; 298.15 K): 6.17 mole fraction (printed as xo × | logPo/b ([4]; 298.15 K): 1.65 | sb × 10^6 (concentration in buffer) ([4]; 303.15 K): 8.29 mol∙L^−1 (printed as sb × 10^6 | so × 10^4 (concentration in 1-octanol) ([4]; 303.15 K): 3.91 mol∙L^−1 (printed as so × 10^4 | xb × 10^7 (mole fraction in buffer) ([4]; 303.15 K): 1.51 mole fraction (printed as xb × | xo × 10^5 (mole fraction in 1-octanol) ([4]; 303.15 K): 6.21 mole fraction (printed as xo × | logPo/b ([4]; 303.15 K): 1.67 | sb × 10^6 (concentration in buffer) ([4]; 308.15 K): 7.80 mol∙L^−1 (printed as sb × 10^6 | so × 10^4 (concentration in 1-octanol) ([4]; 308.15 K): 3.91 mol∙L^−1 (printed as so × 10^4 | xb × 10^7 (mole fraction in buffer) ([4]; 308.15 K): 1.42 mole fraction (printed as xb × | xo × 10^5 (mole fraction in 1-octanol) ([4]; 308.15 K): 6.24 mole fraction (printed as xo × | sb × 10^6 (concentration in buffer) ([4]; 313.15 K): 7.36 mol∙L^−1 (printed as sb × 10^6 | so × 10^4 (concentration in 1-octanol) ([4]; 313.15 K): 3.92 mol∙L^−1 (printed as so × 10^4 | xb × 10^7 (mole fraction in buffer) ([4]; 313.15 K): 1.35 mole fraction (printed as xb × | xo × 10^5 (mole fraction in 1-octanol) ([4]; 313.15 K): 6.28 mole fraction (printed as xo ×

From paper PMC9573696, “Experimental Examination of Solubility and Lipophilicity as Pharmaceutically Relevant Points of Novel Bioactive Hybrid Compounds” (Molecules, 2022)
